Consider two compounds from paper PMC6268022, “Substituted N-Benzylpyrazine-2-carboxamides: Synthesis and Biological Evaluation ^†” (Molecules, 2012).

Series [1] concerns M. kansasii CNCTC My 235/80. Nature of the series: In vitro antimycobacterial microdilution panel method. The format is cell-based. To be noted: Mycobacterium kansasii, 144 h; CNCTC My 235/80, pH 6.0, 6 days.
Series [2] has as its system Trichophyton mentagrophytes 445. Nature of the series: In vitro antifungal microdilution broth method. To be noted: RPMI 1640 pH 7.0, 35 °C, read-out: TM MIC. It is filed as cell-based. The protocol: The Department of Medical and Biological Sciences at the Faculty of Pharmacy in Hradec Králové, Charles University in Prague, Czech Republic, performed the antifungal susceptibility assays, which was carried out using microdilution broth method. Compounds were dissolved in DMSO and diluted in a twofold manner with RPMI 1640 medium with glutamine buffered to pH 7.0 (3-morpholinopropane-1-sulfonic acid). […] Drug-free controls were included. […] The MICs were determined after 24 and 48 h, respectively after 72 and 120 h for Trichophyton mentagrophytes (TM), of static incubation in dark at 35 °C. Tested species: […]
(In general: Broth dilution looks for growth in wells or tubes with falling amounts of substance.)

The test system of series [3] is aromatic amino acids in the proteins of spinach chloroplasts situated in PS 2. Nature of the series: Fluorescence of aromatic amino acids in spinach chloroplasts. It is filed as biochemical, Spinacia oleracea L. To be noted: λex = 275 nm, 0-0.11 mmol/L. The source says:
Figure 4 presents fluorescence emission spectra of aromatic amino acids of untreated spinach chloroplasts and of chloroplasts treated with increasing concentrations of compound 6 (see Figure 4A) as well as dependence of fluorescence intensity of chlorophyll a on concentration of compounds 2 (squares), 11 (triangles) and 6 (circles) (see Figure 4B). Binding of these compounds to aromatic amino acids occurring in photosynthetic proteins contribute to PET inhibition. The fluorescence emission spectra of chlorophyll a (Chla) and aromatic amino acids in spinach chloroplasts were recorded on fluorescence spectrophotometer F-2000 (Hitachi, Tokyo, Japan) using excitation wavelength λex = 436 nm for monitoring fluorescence of Chla and λex = 275 nm for monitoring fluorescence of aromatic amino acids, excitation slit 20 nm and emission slit 10 nm. The samples were kept in the dark 2 min before measuring. The phosphate buffer used for dilution of the chloroplast suspension was the same as described above. Due to low aqueous solubility the compounds were added to a chloroplast suspension in DMSO solution. The DMSO concentration in all samples was the same as in the control (10%). The chlorophyll concentration in chloroplast suspension was 10 mg/L.

Series [4] relates to M. tuberculosis H37Rv CNCTC My 331/88. Nature of the series: In vitro antimycobacterial microdilution panel method. The format is cell-based. To be noted: Mycobacterium tuberculosis, 336 h.
Series [5] can be described thus: HPLC lipophilicity determination (capacity factor k / log k). To be noted: RP-HPLC, C18, MeOH 70%/H2O 30%, 30 °C.
Method: The separation process was controlled by Agilent ChemStation, version B.04.02 extended by spectral module (Agilent Technologies Inc.). A solution of MeOH (HPLC grade, 70%) with H2O (HPLC-Milli-Q Grade, 30%) was used as mobile phase. The total flow of the column was 1.0 mL/min, injection 20 µL, column temperature 30 °C. 210 nm as detection wavelength and 270 nm as monitor wavelength were chosen. The KI methanol solution was used for the dead time (TD) determination. Retention times (TR) of synthesized compounds were measured in minutes. The capacity factors k were calculated using Microsoft Excel according to formula k = (TR − TD)/TD, where TR is the retention time of the solute and TD denotes the dead time obtained via an unretained analyte. Log k, calculated from the capacity factor k, is used as the lipophilicity index converted to log P scale.
Series [6] has as its system M. avium CNCTC My 80/72. Nature of the series: In vitro antimycobacterial microdilution panel method. The format is cell-based. The note with it: Mycobacterium avium, 336 h; CNCTC My 80/72, pH 6.0, 14 days.
Series [7] relates to M. avium CNCTC My 152/73. Described as above. It is filed as cell-based. The note with it: Mycobacterium avium, 336 h; CNCTC My 152/73, pH 6.0, 14 days.
The subject of series [8] is photosynthetic electron transport (PET) in spinach chloroplasts. Description: Inhibition of photosynthetic electron transport (oxygen evolution rate) in spinach chloroplasts. The format is biochemical, Spinacia oleracea L. To be noted: DCPIP photoreduction, pH 7.2. The protocol:
All studied compounds were evaluated for their photosynthetic electron transport (PET) inhibition in spinach chloroplasts, which was reflected in the inhibition of oxygen evolution rate. The photosynthesis-inhibiting activity of the compounds has been expressed as IC50 values. Compounds 4, 5, 7 and 8 were not tested due to their low solubility in tested medium.
Chloroplasts were prepared from spinach (Spinacia oleracea L.) according to Masarovičová and Kráľová [31]. The inhibition of photosynthetic electron transport (PET) in spinach chloroplasts was determined spectrophotometrically (Genesys 6, Thermo Scientific, Madison, WI, USA) using an artificial electron acceptor 2,6-dichlorophenol-indophenol (DCPIP) according to Kráľová et al. and the rate of photosynthetic electron transport (PET) was monitored as a photo-reduction of DCPIP. The measurements were carried out in a phosphate buffer (0.02 mol/L, pH 7.2) containing sucrose (0.4 mol/L), MgCl2 (0.005 mol/L) and NaCl (0.015 mol/L). The chlorophyll content was 30 mg/L in these experiments and the samples were irradiated (~100 W/m^2) from a 10 cm distance with halogen lamp (250 W) using a 4 cm water filter to prevent warming of the samples (suspension temperature 22 °C). The studied compounds were dissolved in DMSO due to their limited water solubility. […] The inhibitory efficiency of the studied compounds was expressed as the IC50 values, i.e., molar concentration of the compounds causing 50% decrease in the oxygen evolution relative to the untreated control.

Series [9] has the same test system. Also noted: method as in earlier work. To be noted: standard, read-out: IC50 (PET inhibition); cited from earlier work.

Structures are written as SMILES. Converted amounts (≈) assume the structure as drawn. “And” between values parts separate entries of the source, which are not always exact repeats. Identical values can stand only once. Like-named read-outs stand apart in the source and are kept apart here.

Usually MIC stands for the least concentration at which growth counts as inhibited. By IC50 is commonly meant the concentration needed to halve the response being measured. Consider `O=C(NCc1cccc(C(F)(F)F)c1)c1cncc(Cl)n1` [Compound 6, 6-Chloro-N-(3-trifluoromethylbenzyl)pyrazine-2-carboxamide], for which the MIC in series [1] was found to be 100 mg/L (≈ 317 µM); in series [2] (Trichophyton mentagrophytes, 445, 72 h, pH 7, evaluated after 72 h), 62.5 µM (≈ 19.7 µg/mL); in series [2] (Trichophyton mentagrophytes, 445, 120 h, pH 7, evaluated after 120 h), 125 µM (≈ 39.5 µg/mL); in series [4] (MIC with respect to molecular weight, Šula's medium pH 6.0, 14 days, read-out: MIC M. tuberculosis H37Rv (value in parentheses)), 39 µM; in [4] (Šula's medium pH 6.0, 37 °C, 14 days, read-out: MIC M. tuberculosis H37Rv) it was 12.5 mg/L; in series [6], 25 mg/L (≈ 79.2 µM). Further, in [7], the minimum inhibitory concentration (MIC) turned out to be 100 mg/L (≈ 317 µM). Moreover, the “fluorescence of aromatic amino acids” value in series [3] is given as “quenching of their fluorescence at 334 nm”. This compound also returned a log k in series [5] of 0.4507. The compound also gave a half-inhibitory concentration (IC50) in [8] of 1210 µM.
`CN(C)C(=O)Nc1ccc(Cl)c(Cl)c1` [DCMU, 3-(3,4-dichlorophenyl)-1,1-dimethylurea]: the IC50 in [9] was ~1.9 µM and 1.9 µM.
